“And” between values parts separate entries of the source, which are not always exact repeats. Equal entries are not always repeated.

For orientation: IC50 means the concentration that inhibits the measured activity by half. Usually LD50 stands for the dose expected to kill half of the subjects tested. Read a low LD50 as greater toxicity. As a reminder, the melting point is the temperature of the solid-liquid transition.

One series relates to T. b. gambiense strain. As to the kind of experiment: In vitro antitrypanosomal activities (LILIT, Alamar Blue). It counts as cell-based, Trypanosoma brucei gambiense. As to conditions: Trypanosoma brucei, GAMBIENSE, 72 h. The protocol: In vitro antitrypanosomal activities against T. b. gambiense strain was described by Otoguro et al. In brief, T. b. gambiense strain was cultured in IMDM with various supplements and 10% heat-inactivated FBS at 37°C, under 5.0% CO2/95% air according to the method of Baltz et al. Ninety five […] of the trypanosomes suspension (2.0–2.5104 trypanosomes/mL for strain GUTat 3.1) was seeded in a 96-well microplate, and […] of a test compound solution (dissolved in 5.0% dimethylsulfoxide) was added followed by incubation for 72 h (long incubation-low inoculation test: LILIT). Ten […] of the fluorescent dye Alamar Blue was added to each well. After incubation for 3–6 h, the resulting solution was read at 528/20 nm excitation wavelength and 590/35 nm emission wavelength by a FLx800 fluorescent plate reader (Bio-Tek Instrument, Inc. Vermont, USA). Data were transferred into a spreadsheet program (Excel). The IC50 values were determined using fluorescent plate reader software (KC-4, Bio-Tek). Successive subcultures were done in 24-well tissue culture plates under the same conditions.
For orientation: Resazurin is reduced to fluorescent resorufin, in cell work by metabolically active cells.
In the case of `Nc1nc(N)nc(Nc2ccc([As]3SCC(CO)S3)cc2)n1` (stereo not shown) [melarsoprol], 5 nM corresponded to half-maximal inhibition (IC50).

The series is the same for the next values; noted with them: Trypanosoma brucei; T. b. gambiense strain GUTat 3.1, 72 h incubation, Alamar Blue fluorescence; read-out: IC50.
In the case of `Cc1ccc(S(=O)(=O)N(C(=O)c2ccccc2)C(Cc2cc3ccccc3[nH]2)C(=O)Nc2cnc3ccccc3c2)cc1` (stereo not shown) [Compound 11c, 3-(1H-indol-2-yl)-2-[N-(4-methylbenzenesulfonyl)-1-phenylformamido]-N-(quinolin-3-yl)propanamide], the 50% inhibitory concentration (IC50) worked out at 106 ± 0.03 nM.

On to `O=C(Nc1cnc2ccccc2c1)C(Cc1cc2ccccc2[nH]1)N(C(=O)c1ccccc1)S(=O)(=O)c1ccccc1` (stereo not shown) [Compound 11k, 2-[N-(benzenesulfonyl)-1-phenylformamido]-3-(1H-indol-2-yl)-N-(quinolin-3-yl)propanamide], for which the IC50 stood at 109 ± 0.08 nM.

Still in this series, the particulars now being: read-out: IC50.
Turning to “2-[N-(benzenesulfonyl)-1-phenylformamido]-3-methyl-N-(quinolin-3-yl)butanamide [Compound 11n]”, the IC50 turned out to be 1 nM.

In the case of “4-Hydroxy-1-(4-methylbenzenesulfonyl)-N-(quinolin-3-yl)pyrrolidine-2-carboxamide [Compound 11g]”, the IC50 came out at 2 nM.

As to “2-[N-(4-nitrobenzenesulfonyl)-1-phenylformamido]-N-(quinolin-3-yl)acetamide [Compound 11q]”, the IC50 was 128 ± 0.09 nM.

Consider “3-Methyl-2-[N-(4-nitrobenzenesulfonyl)-1-phenylformamido]-N-(quinolin-3-yl)pentanamide [Compound 11u]”, for which the IC50 came out at 114 ± 0.03 nM.

Regarding “4-Methyl-2-[N-(4-methylbenzenesulfonyl)-1-phenylformamido]-N-(quinolin-3-yl)pentanamide [Compound 11d]”, the IC50 amounted to 121 ± 0.05 nM.

Regarding “4-Hydroxy-1-(4-nitrobenzenesulfonyl)-N-(quinolin-3-yl)pyrrolidine-2-carboxamide [Compound 11w]”, the IC50 was 2 nM.

“2-[N-(4-methylbenzenesulfonyl)-1-phenylformamido]-N-(quinolin-3-yl)acetamide [Compound 11a]”: the IC50 amounted to 136 ± 0.03 nM.

With “2-[N-(benzenesulfonyl)-1-phenylformamido]-N-(quinolin-3-yl)acetamide [Compound 11i]”, the IC50 came to 140 ± 0.03 nM.

As to “2-[N-(benzenesulfonyl)-1-phenylformamido]-3-phenyl-N-(quinolin-3-yl)propanamide [Compound 11j]”, the IC50 stood at 116 ± 0.04 nM.

For “1-(4-Nitrobenzenesulfonyl)-N-(quinolin-3-yl)pyrrolidine-2-carboxamide [Compound 11x]”, the IC50 turned out to be 3 nM.

As for “1-(Benzenesulfonyl)-N-(quinolin-3-yl)pyrrolidine-2-carboxamide [Compound 11p]”, the concentration for half-maximal inhibition (IC50) was 4 nM.

Take “2-[N-(4-nitrobenzenesulfonyl)-1-phenylformamido]-3-phenyl-N-(quinolin-3-yl)propanamide [Compound 11r]”: the IC50 is 108 ± 0.09 nM.

“4-Methyl-2-[N-(4-nitrobenzenesulfonyl)-1-phenylformamido]-N-(quinolin-3-yl)pentanamide [Compound 11t]”: the 50% inhibitory concentration (IC50) is 114 ± 0.09 nM.

In the case of “1-(Benzenesulfonyl)-4-hydroxy-N-(quinolin-3-yl)pyrrolidine-2-carboxamide [Compound 11o]”, the IC50 came to 3 nM.

For “1-(4-Methylbenzenesulfonyl)-N-(quinolin-3-yl)pyrrolidine-2-carboxamide [Compound 11h]”, the IC50 is 5 nM and 6 nM.

For the molecule “2-[N-(benzenesulfonyl)-1-phenylformamido]-4-methyl-N-(quinolin-3-yl)pentanamide [Compound 11l]”, the IC50 came out at 125 ± 0.1 nM.

For “2-[N-(benzenesulfonyl)-1-phenylformamido]-3-methyl-N-(quinolin-3-yl)pentanamide [Compound 11m]”, the IC50 was 125 ± 0.09 nM.

With “2-[N-(4-methylbenzenesulfonyl)-1-phenylformamido]-3-phenyl-N-(quinolin-3-yl)propanamide [Compound 11b]”, the IC50 was determined as 114 ± 0.05 nM.

Regarding “3-Methyl-2-[N-(4-nitrobenzenesulfonyl)-1-phenylformamido]-N-(quinolin-3-yl)butanamide [Compound 11v]”, the IC50 worked out at 1 nM.

As to “3-Methyl-2-[N-(4-methylbenzenesulfonyl)-1-phenylformamido]-N-(quinolin-3-yl)butanamide [Compound 11f]”, the IC50 was 3 nM.

Tested on in the next series: not listed separately
Description: Determination of LD50 in mice. As to conditions: mouse, in vivo, ip; male mice, intraperitoneal, observed 72 h. The protocol:
Male mice were divided into various groups and test compounds were administered in various doses intraperitoneally. […] All behavioral changes and deaths during the observation periods were recorded. The percentage of death at each dose level was then calculated, converted to probits and the LD50 (μM/kg) values were calculated. To observe the health status of the mice, they were monitored 4 times a day. […] For the purpose of ameliorating the suffering of the dying mice, CO2 euthanasia was applied. All the dead mice were disposed in bio-safety containers in accordance with local standard protocols. The mortality rate in each group was calculated according to the formula: Mortalityrate(%)=(thenumberofdeadmice/thenumberofmiceinthegroup)×100.
As for `Nc1nc(N)nc(Nc2ccc([As]3SCC(CO)S3)cc2)n1` (stereo not shown) [melarsoprol], the LD50 at 72 h was determined as 7.21 ± 0.28 µmol/kg.

Tested on in the next series: not given
Assay: not given
Details: not given
Regarding `Cc1ccc(S(=O)(=O)N(C(=O)c2ccccc2)C(Cc2cc3ccccc3[nH]2)C(=O)Nc2cnc3ccccc3c2)cc1` (stereo not shown) [Compound 11c, 3-(1H-indol-2-yl)-2-[N-(4-methylbenzenesulfonyl)-1-phenylformamido]-N-(quinolin-3-yl)propanamide], the melting point lay within 88.1 to 88.8 °C.

In turn, `O=C(Nc1cnc2ccccc2c1)C(Cc1cc2ccccc2[nH]1)N(C(=O)c1ccccc1)S(=O)(=O)c1ccccc1` (stereo not shown) [Compound 11k, 2-[N-(benzenesulfonyl)-1-phenylformamido]-3-(1H-indol-2-yl)-N-(quinolin-3-yl)propanamide] yielded a melting point of 73.5 to 73.8 °C.

In the next series the test system is T. b. rhodesiense.
Assay: not given
The conditions noted are these: cited from earlier work.
Take `NCCCC(N)(C(=O)O)C(F)F` (stereo not shown) [Eflornithine]: the “effectiveness against T. b. rhodesiense” value is given as “ineffective”.

In a further series the test system is people.
Assay: not given
The conditions noted are these: cited from earlier work.
As to `Nc1nc(N)nc(Nc2ccc([As]3SCC(CO)S3)cc2)n1` (stereo not shown) [melarsoprol], the “people who die from adverse effects related to treatment” value is listed as 1–5%.
